Assay results taken from patent US20100286073A1, “COMPOUNDS AND METHODS FOR PHARMACEUTICAL USE” (priority 2007, published 2010).
“Also recorded” adds a separate entry of the source.

Assays:
[1] = tested on: human subjects diagnosed with fibromyalgia syndrome; experiment: Patient history of prior treatment of the fibromyalgia subjects (Examples 1-3); conditions: for pain relief by prior OTC analgesics: codeine at low dose; for side effects of prior prescription analgesics / pain relief by prior prescription analgesics: codeine at high dose; for pain relief by prior prescription analgesics: at best
Source text: (§1) Patient History of Prior Treatment: A patient history was taken. Prior treatments targeting pain relief were as follows.
Prior treatments targeting other symptoms included the following. The subject had taken tegaserod for irritable bowel syndrome. Additional prior therapies included sertraline for depression, and zolpidem for insomnia. The subject has also taken proclorperazine for dizziness.
Prior treatments targeting other symptoms included the following. The subject had taken tegaserod for irritable bowel syndrome. Additional prior therapies included sertraline for depression, and zolpidem for insomnia.
as §1
Prior treatments targeting other symptoms included the following. The subject had taken tegaserod for irritable bowel syndrome. Additional prior therapies included zolpidem, midazolam, zopiclone, and chlorpheniramine for insomnia.

[2] = molecular target: long-chain isoform of 3-ketoacyl coenzyme A thiolase (3KCT) (Homo sapiens, UniProt P55084); conditions: thereby reducing fatty acid oxidation; Kantor et al., Circ Res 2000; cited from earlier work
Chain of long-chain isoform of 3-ketoacyl coenzyme A thiolase (3KCT) (P55084 34-474): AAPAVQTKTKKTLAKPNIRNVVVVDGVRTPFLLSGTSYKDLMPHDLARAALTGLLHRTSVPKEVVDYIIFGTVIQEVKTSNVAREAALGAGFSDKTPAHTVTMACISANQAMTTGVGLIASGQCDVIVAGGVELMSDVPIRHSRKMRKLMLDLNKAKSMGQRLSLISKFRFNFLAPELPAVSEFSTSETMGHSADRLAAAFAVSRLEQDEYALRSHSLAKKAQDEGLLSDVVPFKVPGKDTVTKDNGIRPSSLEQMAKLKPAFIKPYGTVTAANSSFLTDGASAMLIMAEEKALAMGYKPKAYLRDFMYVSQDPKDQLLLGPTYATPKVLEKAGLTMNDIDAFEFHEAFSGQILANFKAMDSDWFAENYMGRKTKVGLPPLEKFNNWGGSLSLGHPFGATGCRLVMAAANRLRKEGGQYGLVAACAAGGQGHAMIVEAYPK
Chain of long-chain isoform of 3-ketoacyl coenzyme A thiolase (3KCT) (P40939 37-763 partner): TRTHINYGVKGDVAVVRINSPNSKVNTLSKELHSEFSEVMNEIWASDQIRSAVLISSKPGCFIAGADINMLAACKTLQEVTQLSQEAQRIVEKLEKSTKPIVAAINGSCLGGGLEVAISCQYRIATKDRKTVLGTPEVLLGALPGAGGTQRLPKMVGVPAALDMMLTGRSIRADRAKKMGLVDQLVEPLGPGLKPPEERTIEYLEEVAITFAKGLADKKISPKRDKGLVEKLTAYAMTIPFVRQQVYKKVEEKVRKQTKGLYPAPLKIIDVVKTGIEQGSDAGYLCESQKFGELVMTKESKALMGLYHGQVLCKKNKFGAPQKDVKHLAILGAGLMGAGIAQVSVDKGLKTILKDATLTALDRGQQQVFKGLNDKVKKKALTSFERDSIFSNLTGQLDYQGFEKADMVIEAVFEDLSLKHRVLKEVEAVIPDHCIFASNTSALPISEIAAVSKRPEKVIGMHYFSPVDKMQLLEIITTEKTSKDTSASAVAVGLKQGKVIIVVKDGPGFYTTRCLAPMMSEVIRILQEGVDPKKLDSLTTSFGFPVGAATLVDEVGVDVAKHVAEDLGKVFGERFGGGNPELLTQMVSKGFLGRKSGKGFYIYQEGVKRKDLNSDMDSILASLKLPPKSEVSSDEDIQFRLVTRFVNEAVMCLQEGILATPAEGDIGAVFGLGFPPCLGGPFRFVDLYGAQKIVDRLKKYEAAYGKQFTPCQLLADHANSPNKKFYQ

[3] = tested on: human subjects diagnosed with fibromyalgia syndrome; experiment: Treatment of human subjects diagnosed with fibromyalgia with trimetazidine (Examples 1-4, clinical case reports); format: in vivo
Description: A person presented with long-standing complaints (15 years) of widespread pain—headaches, upper and lower back pain, neck pain, elbow and knee pain bilaterally, calf pain bilaterally and jaw pain. General non-specific symptoms were fatigue, symptoms of irritable bowel syndrome (constipation-type), insomnia, cognitive and memory impairment, morning stiffness, dizziness, irritability and depression.
Treatment Regime: The subject was administered trimetazidine (modified release formulation, Vastarel® MR), 35 mg orally, twice daily, originally for treatment of their cardiac condition.
Treatment Regime: The subject was administered trimetazidine (modified release formulation, Vastarel® MR), 35 mg orally, twice daily.
The following is a synopsis of the clinical response of each of eight (8) patients diagnosed with FMS, each of whom received treatment with trimetazidine MR (Vastarel® MR), 35 mg orally, twice daily, for a period of at least four (4) weeks.

[4] = Examples 1-2, within 72 h (Ex. 1) or 24 h (Ex. 2) of starting 35 mg orally twice daily, patient-reported
[5] = Examples 1-3, within 72 h (Ex. 1) or 24 h (Ex. 2, 3) of starting 35 mg orally twice daily, patient-reported
[6] = Short Term i.e. within 72 hours, trimetazidine MR 35 mg orally twice daily, FMS patient, Example 4
[7] = Short Term i.e. within 72 hours, trimetazidine MR 35 mg orally twice daily, FMS patients, Example 4
[8] = after four (4) months of continuous use, 35 mg orally twice daily
[9] = examination after at least four weeks of trimetazidine MR 35 mg orally twice daily
[10] = examination after four weeks of trimetazidine MR 35 mg orally twice daily

SMILES: COc1ccc2c3c1O[C@H]1[C@@H](O)C=C[C@H]4[C@@H](C2)N(C)CC[C@@]341 [codeine]
- pain relief by prior OTC analgesics [1]: no pain relief whatsoever; also recorded: negligible pain relief
- side effects of prior prescription analgesics [1]: frequently accompanied by unpleasant side effects
- pain relief by prior prescription analgesics [1]: mild to moderate and very temporary relief

SMILES: COc1cccc(C2(O)CCCCC2CN(C)C)c1 (centres unmarked) [tramadol]
- side effects of prior prescription analgesics [1]: frequently accompanied by unpleasant side effects
- pain relief by prior prescription analgesics [1]: mild to moderate and very temporary relief

SMILES: CCOC(=O)C1(c2ccccc2)CCN(C)CC1 [meperidine]
- side effects of prior prescription analgesics [1]: frequently accompanied by unpleasant side effects
- pain relief by prior prescription analgesics [1]: mild to moderate and very temporary relief

SMILES: CC(=O)Nc1ccc(O)cc1 [paracetamol]
- pain relief by prior OTC analgesics [1]: no pain relief whatsoever; also recorded: negligible pain relief

SMILES: CCN(CC)CC(=O)Nc1c(C)cccc1C [lidocaine]
- localized pain relief by prior trigger point injections ([1]; injections repeated at 2 to 4 week intervals, extremely painful procedures): best localized pain relief

SMILES: COc1ccc(CN2CCNCC2)c(OC)c1OC [trimetazidine, 1-(2,3,4-trimethyloxybenzyl)piperazine]
- effect on long-chain 3-ketoacyl coenzyme A thiolase (3KCT) [2]: inhibits
- time after commencing therapy at which benefits were first noticed ([3]; Example 1, 35 mg orally twice daily): ≤ 24 h
- level of irritability ([3]; Example 1, within 72 hours of starting 35 mg orally twice daily, patient-reported): markedly reduced
- clarity of thoughts [3, 4]: markedly increased
- short and long term memory [3, 4]: improvement
- energy levels [3, 5]: very significantly increased
- mood [3, 5]: very improved
- regularity of bowel habits [3, 5]: markedly improved
- sleep patterns [3, 5]: very significantly improved
- residual pain after reduction of widespread pain ([3]; Examples 1-3, within 72 h (Ex. 1) or 24 h (Ex. 2, 3) of starting treatment): minimal residual pain reported at the left medial knee; also recorded: minimal residual pain reported at the left hip; also recorded: residual mild headache
- sense of well-being ([3]; Medium/Long Term, after five (5) or four (4) weeks of daily use): increased sense of
- sustained improvement of all symptoms ([3]; Medium/Long Term, after five (5) weeks of daily use, 35 mg orally twice daily, patient-reported): dramatic 95%
- energy levels ([3]; Medium/Long Term, after four (4) weeks of daily use): sustained increase
- sustained improvement of symptoms ([3]; Medium/Long Term, after nine (9) weeks of daily use, 35 mg orally twice daily, patient-reported): 90% sustained
- sustained improvement of symptoms ([3]; Medium/Long Term, after seven (7) weeks of daily use, 35 mg orally twice daily, patient-reported): dramatic 95%
- sustained improvement of symptoms ([3]; Medium/Long Term, after six (6) weeks of daily use, 35 mg orally twice daily, patient-reported): (95%) sustained
- Chest Pain [3, 6]: Absence of Chest
- Memory [3, 6]: Improved Memory
- Nausea [3, 6]: Absence of Nausea
- Nausea and Vomiting [3, 6]: Absence of Nausea
- nervousness [3, 6]: No Nervousness
- reduction in IBS and Acid Reflux Symptoms [3, 6]: 90% reduction in
- reduction in irritability [3, 6]: 90% reduction in
- reduction in severity of Pre-Menstrual Cramps [3, 6]: 70% reduction in
- reduction in symptoms of Irritable Bowel Syndrome [3, 6]: 90% reduction in
- symptoms of Irritable Bowel Syndrome [3, 6]: Markedly reduced
- alertness and clarity of thinking [3, 7]: Increased alertness
- dizziness/dizzy spells [3, 7]: Infrequent dizzy; also recorded: Absence of
- energy (feeling) [3, 7]: Energetic feeling
- improved mood and concentration [3, 7]: Significantly
- improved mood and memory [3, 7]: Significantly
- reduction in widespread pain and trigger point pain [3, 7]: 90% reduction in
- sleep [3, 7]: Consistent restful
- quality of life at follow-up [3, 8]: same marked improvement
- relapse of symptoms at follow-up [3, 8]: no relapse
- quality of life at follow-up ([3]; after six (6) months of continuous use, 35 mg orally twice daily): same marked improvement
- pain at trigger points at follow-up ([3]; after six (6) months of continuous use, in reaction to stress or infections): infrequent episodes of pain
- EXAMINATION FINDINGS: affect [3, 9]: markedly improved
- EXAMINATION FINDINGS: resolution of trigger point tenderness [3, 9]: Sustained
- EXAMINATION FINDINGS: affect and energy levels [3, 10]: markedly improved
- EXAMINATION FINDINGS: improvement in physical appearance [3, 10]: obvious marked
- EXAMINATION FINDINGS: improved energy levels ([3]; examination after ten weeks of trimetazidine MR 35 mg orally twice daily): Markedly
- improvement in all symptoms and signs of fibromyalgia ([3]; within 24 hours of starting treatment, 35 mg orally twice daily): vast improvement
- reduction in widespread pain ([3]; within 24 hours of starting treatment, trimetazidine MR 35 mg orally twice daily, FMS patient, patient-reported): 95%
- improvement in all symptoms and signs of fibromyalgia ([3]; within 72 hours of starting treatment, 35 mg orally twice daily): vast improvement
- reduction in widespread pain ([3]; within 72 hours of starting treatment, trimetazidine MR (Vastarel MR) 35 mg orally twice daily, FMS patient, patient-reported): 90%
- reduction in widespread pain ([3]; within 72 hours of starting treatment, trimetazidine MR (Vastarel MR) 35 mg orally twice daily, FMS patient, patient-reported, listed as Trimetazidine): 90% reduction in
